Reference: patent US6602708B1, “Neural cultures” (CellFactors plc, priority 1994, dated 2003)

Tests used:
raphe clone 1 cells = raphe clone 1 cells at non-permissive temperature (39° C.), survival and differentiation; format: cell-based, rat; details: plus fibroblast growth factor, up to 72 h
Protocol: The above referred to homogeneous population of raphe clone 1 cells can be caused to enter apoptosis using any of the following four methods.
1. Temperature was raised to non-permissive value (39° C.) for up to 72 h, in the presence or absence of fibroblast growth factor or epidermal growth factor. Neural cells developed the ability to take up 5-hydroxytryptophan (5HTP, the precursor of 5HT), 5HT itself, and to decarboxylate 5-hydroxytryptophan to 5HT. […] The 5HT derived from 5HTP was released, although the mechanism of such release is not known.
2. Temperature was raised to non-permissive value (39° C.) for up to 72 h, in the presence of cyclic AMP plus fibroblast growth factor.
3. Temperature was raised to non-permissive value (39° C.) for up to 96 h, in the presence of retinoic acid (10 μM) plus fibroblast growth factor.

low-affinity carrier = experiment: serotonin uptake by clone 921203-6 cells after shift to 39° C.; format: cell-based, rat; details: clone 921203-6, 39° C.
Protocol: Mesencephalic and medullary raphe neural cells from the E12-E13 rat embryo (E1=day of conception) were immortalised using a temperature-sensitive oncogene as described earlier (Stringer et al., 1994). Under permissive conditions, ie in the presence of 5 ng/ml of fibroblast growth factor (FGF)(Sigma, product no. F3391) and at 33° C., the immortalised raphe precursor cells replicate. […] No calcium channels were demonstrable using patch clamp analysis.

Compound | extent of fibre development (raphe clone 1 cells) | Km (low-affinity carrier) [µM]
Nc1ncnc2c1ncn2[C@@H]1O[C@@H]2COP(=O)(O)O[C@H]2[C@H]1O [cyclic AMP] | increase | –
NCCc1c[nH]c2ccc(O)cc12 [serotonin, 5-hydroxytryptamine] | – | 56
